Experimental findings from patent publication US20230312481A1, “SUBSTITUTED (PHTHALAZIN-1-YLMETHYL)UREAS, SUBSTITUTED N-(PHTHALAZIN-1-YLMETHYL)AMIDES, AND ANALOGUES THEREOF” (priority 2020, published 2023) are described below.

Some results are limits rather than exact numbers.

For the first test, the system named is HBV rcDNA in HepDE19 cells. As to the kind of experiment: HepDE19 assay with bDNA quantitation of HBV rcDNA. Type of test: cell-based, hepatitis B virus. The settings on record: HepDE19 cells, 7 day incubation, rcDNA measured by Quantigene 2.0 bDNA assay; top concentration 25 µM; read-out: DE-19bDNA EC50. How it is done: HepDE19 Assay With bDNA Quantitation of HBV rcDNA
HepDE19 (50,000 cells/well) were plated in 96-well collagen-coated tissue-culture treated microtiter plates in DMEM/F12 medium supplemented with 10% fetal bovine serum, 1% penicillin-streptomycin and 1 µg/mL tetracycline and incubated in a humidified incubator at 37° C. and 5% CO2 overnight. Next day, the cells were switched to fresh medium without tetracycline and incubated for 4 hours at 37° C. and 5% CO2. […] The final DMSO concentration in the assay was 0.5%. The plates were incubated for 7 days in a humidified incubator at 37° C. and 5% CO2. Following a 7 day-incubation, the level of rcDNA present in the inhibitor-treated wells was measured using a Quantigene 2.0 bDNA assay kit (Affymetrix, Santa Clara, CA) with HBV specific custom probe set and manufacturers instructions. Concurrently, the effect of compounds on cell viability was assessed using replicate plates, plated at a density of 5,000 cells/well and incubated for 4 days, to determine the ATP content as a measure of cell viability using the cell-titer glo reagent (CTG; Promega Corporation, Madison, WI) as per manufacturer’s instructions.
Representative compounds of the disclosure were tested for their abilities to inhibit formation of relaxed circular DNA (rcDNA) in a HepDE19 assay, as described elsewhere herein.
`CC(C)CN(C(=O)Nc1ccc(F)c(Cl)c1)C(C)c1n[nH]c(=O)c2ccccc12` (single isomer, unassigned) [Compound 6, 3-(3-chloro-4-fluoro-phenyl)-1-isobutyl-1-[1-(4-oxo-3H-phthalazin-1-yl)ethyl]urea]: the EC50 was found to be 1700 nM. On the same count and under the same terms, to `CC(C)CN(C(=O)Nc1ccc(F)cc1)C(C)c1n[nH]c(=O)c2cc(F)ccc12` (single isomer, unassigned) [Compound 20, 1-(1-(6-fluoro-4-oxo-3,4-dihydrophthalazin-1-yl)ethyl)-3-(4-fluorophenyl)-1-isobutylurea] belongs 8 nM. Take `CC(C)CN(C(=O)Nc1ccc(F)cc1)C(C)c1n[nH]c(=O)c2cc(F)ccc12` (single isomer, unassigned) [Compound 21, 1-(1-(6-fluoro-4-oxo-3,4-dihydrophthalazin-1-yl)ethyl)-3-(4-fluorophenyl)-1-isobutylurea]: the EC50 amounted to 2400 nM. The same measure, in the same setting: to `CC(c1n[nH]c(=O)c2cc(F)c(F)cc12)N(C)C(=O)c1cc2sccc2[nH]1` (single isomer, unassigned) [Compound 80, N-(1-(6,7-difluoro-4-oxo-3,4-dihydrophthalazin-1-yl)ethyl)-N-methyl-4H-thieno[3,2-b]pyrrole-5-carboxamide] belongs 14100 nM. Same read-out and setting: to `CC(c1n[nH]c(=O)c2cc(F)c(F)cc12)N(C)C(=O)c1cc2sccc2[nH]1` (single isomer, unassigned) [Compound 81, N-(1-(6,7-difluoro-4-oxo-3,4-dihydrophthalazin-1-yl)ethyl)-N-methyl-4H-thieno[3,2-b]pyrrole-5-carboxamide] belongs 110 nM; to `CC(c1n[nH]c(=O)c2cc(F)c(F)cc12)N(C)C(=O)c1ccc2c(c1)CCC2` (single isomer, unassigned) [Compound 82, N-(1-(6,7-difluoro-4-oxo-3,4-dihydrophthalazin-1-yl)ethyl)-N-methyl-2,3-dihydro-1H-indene-5-carboxamide], 9010 nM; to `CC(c1n[nH]c(=O)c2cc(F)c(F)cc12)N(C)C(=O)c1ccc2c(c1)CCC2` (single isomer, unassigned) [Compound 83, N-(1-(6,7-difluoro-4-oxo-3,4-dihydrophthalazin-1-yl)ethyl)-N-methyl-2,3-dihydro-1H-indene-5-carboxamide], 80 nM. The same measure, in the same setting: to `CC(c1n[nH]c(=O)c2cc(F)c(F)cc12)N(C)C(=O)c1ccc2scnc2c1` (single isomer, unassigned) [Compound 84, N-(1-(6,7-difluoro-4-oxo-3,4-dihydrophthalazin-1-yl)ethyl)-N-methylbenzo[d]thiazole-5-carboxamide] belongs over 25000 nM. `CC(c1n[nH]c(=O)c2cc(F)c(F)cc12)N(C)C(=O)c1ccc2scnc2c1` (single isomer, unassigned) [Compound 85, N-(1-(6,7-difluoro-4-oxo-3,4-dihydrophthalazin-1-yl)ethyl)-N-methylbenzo[d]thiazole-5-carboxamide]: the EC50 worked out at 2220 nM. For the molecule `CC(c1n[nH]c(=O)c2cc(F)c(F)cc12)N(C)C(=O)c1ccc2ncsc2c1` (single isomer, unassigned) [Compound 86, N-(1-(6,7-difluoro-4-oxo-3,4-dihydrophthalazin-l-yl)ethyl)-N-methylbenzo[d]thiazole-6-carboxamide], the EC50 was at least 25000 nM. Consider `CC(c1n[nH]c(=O)c2cc(F)c(F)cc12)N(C)C(=O)c1ccc2ncsc2c1` (single isomer, unassigned) [Compound 87, N-(1-(6,7-difluoro-4-oxo-3,4-dihydrophthalazin-l-yl)ethyl)-N-methylbenzo[d]thiazole-6-carboxamide], for which the EC50 worked out at 5570 nM. Regarding `CC(c1n[nH]c(=O)c2cc(F)c(F)cc12)N(C)C(=O)c1ccc2ocnc2c1` (single isomer, unassigned) [Compound 88, N-(1-(6,7-difluoro-4-oxo-3,4-dihydrophthalazin-1-yl)ethyl)-N-methylbenzo[d]oxazole-5-carboxamide], the EC50 is over 25000 nM.

Regarding `CC(c1n[nH]c(=O)c2cc(F)c(F)cc12)N(C)C(=O)c1ccc2ocnc2c1` (single isomer, unassigned) [Compound 89, N-(1-(6,7-difluoro-4-oxo-3,4-dihydrophthalazin-1-yl)ethyl)-N-methylbenzo[d]oxazole-5-carboxamide], the EC50 came to 2420 nM. Regarding `CC(c1n[nH]c(=O)c2cc(F)c(F)cc12)N(C)C(=O)c1ccc2ncoc2c1` (single isomer, unassigned) [Compound 90, N-(1-(6,7-difluoro-4-oxo-3,4-dihydrophthalazin-1-yl)ethyl)-N-methylbenzo[d]oxazole-6-carboxamide], the half-maximal effective concentration (EC50) is over 25000 nM.

Take `CC(c1n[nH]c(=O)c2cc(F)c(F)cc12)N(C)C(=O)c1ccc2ncoc2c1` (single isomer, unassigned) [Compound 91, N-(1-(6,7-difluoro-4-oxo-3,4-dihydrophthalazin-1-yl)ethyl)-N-methylbenzo[d]oxazole-6-carboxamide]: the EC50 was 3860 nM. On the same count and under the same terms, to `CC(c1n[nH]c(=O)c2cc(F)c(F)cc12)N(C)C(=O)c1cnc(C(F)(F)F)c(Cl)c1` (single isomer, unassigned) [Compound 92, 5-chloro-N-(1-(6,7-difluoro-4-oxo-3,4-dihydrophthalazin-1-yl)ethyl)-N-methyl-6-(trifluoromethyl)nicotinamide] belongs over 25000 nM.

With `CC(c1n[nH]c(=O)c2cc(F)c(F)cc12)N(C)C(=O)c1cnc(C(F)(F)F)c(Cl)c1` (single isomer, unassigned) [Compound 93, 5-chloro-N-(1-(6,7-difluoro-4-oxo-3,4-dihydrophthalazin-1-yl)ethyl)-N-methyl-6-(trifluoromethyl)nicotinamide], the EC50 is 1660 nM.

In the case of `CC(c1n[nH]c(=O)c2cc(F)c(F)cc12)N(C)C(=O)c1cc(F)c(Cl)c(F)c1` (single isomer, unassigned) [Compound 94, 4-chloro-N-(1-(6,7-difluoro-4-oxo-3,4-dihydrophthalazin-1-yl)ethyl)-3,5-difluoro-N-methylbenzamide], the EC50 came to 13300 nM. Regarding `CC(c1n[nH]c(=O)c2cc(F)c(F)cc12)N(C)C(=O)c1cc(F)c(Cl)c(F)c1` (single isomer, unassigned) [Compound 95, 4-chloro-N-(1-(6,7-difluoro-4-oxo-3,4-dihydrophthalazin-1-yl)ethyl)-3,5-difluoro-N-methylbenzamide], the EC50 is 80 nM. The same measure, in the same setting: under `CC(c1n[nH]c(=O)c2cc(F)c(F)cc12)N(C)C(=O)c1cc2c(C(F)F)cc(F)cc2[nH]1` (single isomer, unassigned) [Compound 96, N-(1-(6,7-difluoro-4-oxo-3,4-dihydrophthalazin-1-yl)ethyl)-4-(difluoromethyl)-6-fluoro-N-methyl-1H-indole-2-carboxamide] stands 2520 nM.

The test is the same for the next values; noted with them: Hepatitis B virus, HepDE19, 168 h, read-out: DE-19bDNA EC50.
`C[C@H](c1n[nH]c(=O)c2cc(F)c(F)cc12)N(C)C(=O)Nc1ccc(F)c(Cl)c1` (single isomer, unassigned) [Compound 32]: the concentration for a half-maximal effect (EC50) worked out at 21 nM. On the same count and under the same terms, under `CC(C)CN(C(=O)Nc1ccccc1)C(C)c1n[nH]c(=O)c2cc(F)c(F)cc12` (single isomer, unassigned) [Compound 39, 1-(1-(6,7-difluoro-4-oxo-3,4-dihydrophthalazin-1-yl)ethyl)-1-isobutyl-3-phenylurea] stands 3700 nM.
